# According to patent US20240315985A1 (Dermavant Sciences GmbH, priority 2021, published 2024):
# Tests used:
# [1] = tested on: plaque psoriasis in adults; experiment: Physician Global Assessment (PGA), long-term open-label extension study (PSOARING 3) of tapinarof cream, 1%; format: in vivo, human
# From the text: This extension study consisted of up to 40 weeks of treatment and a 4 week, safety follow up period.
# The PGA was used to assess the primary efficacy endpoint in this study. The PGA is a clinical tool for assessing the current state/severity of a subject's psoriasis at a given time point. It is a static, 5 point, morphological assessment of overall disease severity, as determined by the Investigator, using the clinical characteristics of erythema, scaling, and plaque thickness/elevation as guidelines; higher PGA scores represent more severe disease (0=clear, 1=almost clear, 2=mild, 3=moderate, and 4=severe). The BSA affected was not considered in scoring of the PGA. Variations of the PGA are frequently used in clinical studies because it is a simple assessment, similar to those used in clinical practice. The PGA was performed first, prior to the % BSA, PASI, and LTS assessments.
# Time to event parameters, such as the time from treatment success to subsequent worsening (PGA≥2) or duration of treatment episode, were summarized by the Kaplan Meier product limit method using OC.
# psoriasis = experiment: 12-week phase 2b trial in psoriasis, maintenance after treatment cessation; format: in vivo, human
# From the text: As mentioned, tapinarof is a novel therapeutic aryl hydrocarbon receptor modulating agent (TAMA) in clinical development for the topical treatment of psoriasis and atopic dermatitis. […] AhR modulates T cell responses both through intrinsic control of T cell subset differentiation and via controlling the function of antigen presenting cells. In addition, AhR signaling promotes the conversion of Th17 cells to type 1 regulatory T cells. Aberrant immune responses underpin the pathogenesis of both PsO and AD, and the wide expression of AhR in immune cells makes it an attractive target given the essential role of AhR in regulating inflammatory responses and skin homeostasis. […] These clinical data support the role of AhR in skin immune homeostasis. Given the multitude of AhR-dependent immunoregulatory mechanisms, AhR is an attractive target for novel immunotherapies with the potential to extend therapeutic efficacy following treatment discontinuation; this may provide a unique clinical benefit to patients.
# [2] = tested on: plaque psoriasis in adults; experiment: Safety: adverse events (AEs, TEAEs, AESIs, SAEs), extension study; format: in vivo, human
# From the text: Endpoints: Incidence, frequency, and nature of AEs, adverse events of special interest (AESIs), and serious adverse events (SAEs), Change over time in clinical laboratory tests and frequency of clinically significant abnormal test results, Change over time in vital signs and frequency of clinically significant abnormal results, Local Tolerability Scale (LTS) scores by severity summarized by visit.
# Safety assessments included AEs, AESIs, SAEs, local (application site) tolerability, clinical laboratory tests, vital signs, physical examinations, and Investigator assessed LTS. Efficacy assessments included a 5 point static PGA (0 [clear], 1 [almost clear], 2 [mild], 3 [moderate], 4 [severe]), % BSA affected, the PASI, and subject reported DLQI.
# [3] = Plasma concentrations, maximal use study with serial PK sampling; format: in vivo, human; conditions: between Days 1 and 29
# From the text: This unique PK profile is characterized by the highest plasma concentrations being observed on the first day or week of the treatment period followed by a subsequent decline to undetectable or near undetectable levels in the plasma after multiple weeks of dosing.
# (FIG. 2). This decline is further supported by serial PK data collected from previous clinical studies over 28 days of dosing and over 21 days of dosing.
# [4] = Preclinical repeat dosing study, systemic exposure; format: in vivo; conditions: CYP1A1/2 induced in skin or liver
# From the text: The reason for the decrease in plasma concentrations over time is unknown. Without wishing to be bound by theory, as the skin heals, there may be less penetration of the drug through the stratum corneum and into the systemic circulation since the barrier is restored.
structure (smiles),measurement,setting,value
"CC(C)c1c(O)cc(/C=C/c2ccccc2)cc1O [tapinarof, 3,5-Dihydroxy-4-isopropyl-trans-stilbene]","Durability of Response, No. of Subjects","[1]; Vehicle→Tapinarof, Wk. 0",22
same,Remittive effect off therapy,[1]; patients with complete disease clearance (PGA=0),approximately 4 months
same,Time efficacy was maintained after treatment cessation,psoriasis,four
same,"Study discontinuation due to AESI: Dermatitis contact, Patients, %",[2]; Overall (n = 763),(1.4) %
same,"Study discontinuation due to AESI: Folliculitis, Patients, %",[2]; Overall (n = 763),(1.2) %
same,"Study discontinuation due to TEAEs, Patients, %",[2]; Overall (n = 763),(5.4) %
same,"Treatment-emergent AESI: Dermatitis contact, Patients, %",[2]; Overall (n = 763),(5.9) %
same,"Treatment-emergent AESI: Folliculitis, Patients, %",[2]; Overall (n = 763),(24.0) %
same,"Treatment-emergent AESI: Headache, Patients, %",[2]; Overall (n = 763),(2.0) %
same,"Study discontinuation due to AESI: Dermatitis contact, Patients, %",[2]; Tapinarof→Tapinarof (n = 508),(1.4) %
same,"Study discontinuation due to AESI: Folliculitis, Patients, %",[2]; Tapinarof→Tapinarof (n = 508),(1.2) %
same,"Study discontinuation due to TEAEs, Patients, %",[2]; Tapinarof→Tapinarof (n = 508),(5.1) %
same,"Treatment-emergent AESI: Dermatitis contact, Patients, %",[2]; Tapinarof→Tapinarof (n = 508),(4.7) %
same,"Treatment-emergent AESI: Folliculitis, Patients, %",[2]; Tapinarof→Tapinarof (n = 508),(24.4) %
same,"Treatment-emergent AESI: Headache, Patients, %",[2]; Tapinarof→Tapinarof (n = 508),(2.0) %
same,"Study discontinuation due to AESI: Dermatitis contact, Patients, %",[2]; Vehicle→Tapinarof (n = 255),(1.6) %
same,"Study discontinuation due to AESI: Folliculitis, Patients, %",[2]; Vehicle→Tapinarof (n = 255),(1.2) %
same,"Study discontinuation due to TEAEs, Patients, %",[2]; Vehicle→Tapinarof (n = 255),(5.9) %
same,"Treatment-emergent AESI: Dermatitis contact, Patients, %",[2]; Vehicle→Tapinarof (n = 255),(8.2) %
same,"Treatment-emergent AESI: Folliculitis, Patients, %",[2]; Vehicle→Tapinarof (n = 255),(23.1) %
same,"Treatment-emergent AESI: Headache, Patients, %",[2]; Vehicle→Tapinarof (n = 255),(2.0) %
same,Decline in plasma concentrations of tapinarof,[3],10 fold
same,Change in systemic exposures with repeat dosing compared to single doses,[4]; minipigs,no changes in systemic exposures
same,Change in systemic exposures with repeat dosing compared to single doses,[4]; rats,no changes in systemic exposures
